In US7968582B2, “5(S)-substituted pyrazoline compounds, their preparation and use as medicaments” (Laborotorios Del Dr. Esteve, S.A., priority 2005, dated 2011):

Columns and labels:
[1] = target: T1, recombinant human cannabinoid 1 receptor (CB1) (Homo sapiens, UniProt P21554); test: In vitro determination of antagonism to CB1-receptor, [35S]GTPγS binding assay; assay type: biochemical; details: compound 1 μM with agonist WIN 55,212-2 (3 nM to 3 μM); 100% = difference between maximal WIN 55,212-2 effect alone and plus Rimonabant (1 μM); CHO-hCB1 membranes
T1 construct: expressed in transfected cells; membrane preparation
Procedure: VI. In vitro Determination of Antagonism to CB1-Receptor
In order to obtain cells, culture flasks were washed twice with phosphate buffered saline and scraped. Then, cells were collected by centrifugation (200×g, 10 min) and stored dry at −80° C.
[^35S]GTPγS Binding Assay:
The reaction was performed in 96-well plates. […] Filter plates were dried and 30 μl of scintillation liquid was added, Radioactivity was determined using a Wallac Microbeta Trilux. Each experiment was performed at least in duplicate.
The average of basal [^35S]GTPγS binding was subtracted from all binding data.

[2] = Effect of continued administration on body weight in rats; assay type: in vivo
Procedure: V. Determination of the Effect of Continued Administration of the Inventive Compounds on Body Weight in Rats
The weight of the animals was measured for 36 days, and the data grouped into 3 periods for analysis: Period 1, days 1-8 (period for adaptation of the animals to the environmental conditions: one week without treatment plus first day of treatment); Period 2. days 9-22 (treatment period: two weeks); Period 3, days 23-36 (escape treatment period: two weeks). The administration of the drugs started on day 8, immediately after the animal was weighted, and finished on day 21. The treatment period ranges between one day after first administration and one day after last administration. The drugs were administered i.p. once daily. For comparative purposes, absolute weights were transformed into relative percentages (each weight was divided by that of day 8 and multiplied by 100). […] All results are expressed as mean±S.E.M.
The dependence of body-weight (expressed as a percentage relative to day 8) on time (number of lays after inclusion in the study) and treatment was assessed by a two-way (time, treatment) analysis of variance (ANOVA) with repeated measures on the time factor. […] The differences between pairs of curves (treatments) were analyzed using appropriate contrasts within the ANOVA test. […]

[3] = Chronic administration to animals made obese by a simplified cafeteria diet; assay type: in vivo, rats

T1 sequence (P21554 whole entry): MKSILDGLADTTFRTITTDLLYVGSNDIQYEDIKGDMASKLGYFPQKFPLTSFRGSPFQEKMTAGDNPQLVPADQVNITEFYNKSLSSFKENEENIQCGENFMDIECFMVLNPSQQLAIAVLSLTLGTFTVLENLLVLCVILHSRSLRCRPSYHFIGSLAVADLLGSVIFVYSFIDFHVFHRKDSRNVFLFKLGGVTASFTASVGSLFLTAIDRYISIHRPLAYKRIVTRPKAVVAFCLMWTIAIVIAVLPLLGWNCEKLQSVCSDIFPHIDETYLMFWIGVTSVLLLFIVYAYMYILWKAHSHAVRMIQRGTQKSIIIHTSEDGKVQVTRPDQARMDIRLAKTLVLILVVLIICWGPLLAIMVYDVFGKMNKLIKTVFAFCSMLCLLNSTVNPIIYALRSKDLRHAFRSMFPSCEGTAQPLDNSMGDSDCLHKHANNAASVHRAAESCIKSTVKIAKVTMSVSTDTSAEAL

Row | SMILES | Antagonism [%] [1] | body weight during treatment period ([2]; 10 mg/kg i.p. once daily, days 9-22, FIG. 1) | body weight in post-treatment period ([2]; after 10 mg/kg i.p. once daily, days 23-36, FIG. 1) | body weight versus vehicle-treated controls ([3]; after 28 days of drug treatment, rats) | body weight ([3]; chronic administration, animals made obese by cafeteria diet (high-fat diet, chocolate, ground peanuts)) | effect on plasma lipids (triacylglycerol and glycerol) ([3]; following chronic administration, seems independent of weight loss)
1 | O=C(NN1CCCCC1)C1=NN(c2ccc(Cl)cc2Cl)[C@H](c2ccc(Cl)cc2)C1 [A, (S)-N-piperidinyl-5-(4-chlorophenyl)-1-(2,4-dichlorophenyl)-4,5-dihydro-1H-pyrazole-3-carboxamide] | 43% | significant action during the treatment period | relatively fast recovery of weight | lower than those of the vehicle-treated controls | significantly decreased body weight | positive effect on plasma lipids
2 | Cl.O=C(NN1CCCCC1)C1=NN(c2ccc(Cl)cc2Cl)[C@H](c2ccc(Cl)cc2)C1 [A-Hydrochloride, Hydrochloride salt of (S)-N-piperidinyl-5-(4-chlorophenyl)-1-(2,4-dichlorophenyl)-4,5-dihydro-1H-pyrazole-3-carboxamide] | −7% |  |  |  |  | 
